{
  "source": "patent US5043154A",
  "about": "“Antibacterial, antiplaque, anticalculus oral composition” (priority 1989, dated 1991)",
  "key": {"[1]": {"system": "four dental plaque organisms", "assay": "MIC test on the four dental plaque organisms, summary in words", "assay_type": "cell-based", "conditions": "without TCHE", "procedure": "(§1) Slurries and solutions described below are prepared to determine effectiveness in terms of minimum inhibitory concentration (MIC) of various antibacterial agents against a variety of oral bacterial organisms implicated in formation of plaque and leading to gingivitis on dental surfaces. Soft plaque contains about 1.7×10^11 organism/gm. (net weight). The antibacterial agents are admixed with anionic materials, particularly anionic surface active agent often commonly employed in oral compositions and polyphosphate anticalculus agent.\n(§2) Minimum inhibitory concentration (MIC) of antibacterial agent is used to evaluate the efficacy of the agent in vitro. […] The smaller the MIC value the greater is the efficacy of the antibacterial agent to inhibit the growth of the bacteria. The in vitro MIC data is related to the efficacy of the dentifrice in vivo since retention and release of antibacterial agent into the oral cavity after toothbrushing is in the range of mcg/ml."}, "[2]": {"assay": "human clinical tests, reduction of plaque formation", "assay_type": "in vivo"}, "[3]": {"system": "Bacteriodes intermedius", "assay": "Minimum inhibitory concentration (MIC) against Bacteriodes intermedius, in vitro", "assay_type": "cell-based", "procedure": "as §1, §2"}, "[4]": {"system": "Bacteriodes gingivalis", "assay": "inhibition of growth of Bacteriodes gingivalis by dentifrice extracts", "assay_type": "cell-based", "conditions": "dentifrice containing anionic surfactant plus pyrophosphate with enzyme inhibitors Gantrez and NaF", "procedure": "The dentifrice described in Example 3A is compared with the same composition except without any TCHE and with added 0.50 parts of water. Aqueous extracts of each dentifrice are prepared as follows: 50 ml of distilled water is added to 1.0 gm of each dentifrice, mixed well for a couple of hours with stirring bar and centrifuged, after which the supernatant is collected as aqueous extract. Antibacterial activity of the dentifrice extracts are evaluated on Bacteriodes gingivalis."}, "[5]": {"system": "Bacteriodes gingivalis", "assay": "Minimum inhibitory concentration (MIC) against Bacteriodes gingivalis, in vitro", "assay_type": "cell-based", "procedure": "as §1, §2"}, "[6]": {"system": "Streptococcus mutans", "assay": "Minimum inhibitory concentration (MIC) against Streptococcus mutans, in vitro", "assay_type": "cell-based", "procedure": "as §1, §2"}, "[7]": {"system": "Actinobacillus actinomycetemcomitans", "assay": "Minimum inhibitory concentration (MIC) against Actinobacillus actinomycetemcomitans, in vitro", "assay_type": "cell-based", "procedure": "as §1, §2"}, "[8]": {"conditions": "0.5% TCHE, 1% SLS, 1% Gantrez, 2% Pyrophosphate and 0.2% NaF in water"}},
  "data": [
    {"smiles": "CCCCCCCCCCCCOS(=O)(=O)[O-].[Na+]", "note": "[SLS, sodium lauryl sulfate]", "values": [
      {"measurement": "antibacterial effect", "setting": "[1]", "result": "ineffective"}
    ]},
    {"smiles": "CC(C)(C)CC(C)(C)c1ccc(OCCOCC[N+](C)(C)Cc2ccccc2)cc1", "note": "[BTC, benzethonium chloride]", "values": [
      {"measurement": "reducing plaque formation", "setting": "[2]; 0.075% BTC and 1% pyrophosphate dissolved in water", "result": "is not"},
      {"measurement": "reducing plaque formation", "setting": "[2]; 0.075% BTC dissolved in water", "result": "effective in reducing plaque formation"}
    ]},
    {"smiles": "N=C(NCCCCCCNC(=N)NC(=N)Nc1ccc(Cl)cc1)NC(=N)Nc1ccc(Cl)cc1", "note": "[CH, chlorhexidine digluconate]", "values": [
      {"measurement": "reducing plaque formation", "setting": "[2]; 0.1% CH and 1% sodium N-lauroyl sarcosinate dissolved in water", "result": "is not"},
      {"measurement": "reducing plaque formation", "setting": "[2]; 0.1% CH dissolved in water", "result": "effective in reducing plaque formation"}
    ]},
    {"smiles": "Oc1cc(Cl)ccc1Oc1ccc(Cl)cc1Cl", "note": "[TCHE, 2,4,4'-trichloro-2'-hydroxydiphenyl ether]", "values": [
      {"measurement": "Minimum Inhibition Concentration (MIC), Bacteriodes intermedius", "setting": "[3]; 0.5% TCHE and 1% SLS in water", "result": 2.5, "unit": "µg/mL"},
      {"measurement": "Minimum Inhibition Concentration (MIC), Bacteriodes intermedius", "setting": "[3]; [8]", "result": 2.5, "unit": "µg/mL"},
      {"measurement": "compatibility in dentifrice composition", "setting": "[4]", "result": "compatible"},
      {"measurement": "Minimum Inhibition Concentration (MIC), Bacteriodes gingivalis", "setting": "[5]; 0.5% TCHE and 1% SLS in water", "result": 2.5, "unit": "µg/mL"},
      {"measurement": "Minimum Inhibition Concentration (MIC), Bacteriodes gingivalis", "setting": "[5]; [8]", "result": 2.5, "unit": "µg/mL"},
      {"measurement": "Minimum Inhibition Concentration (MIC), Streptococcus mutans", "setting": "[6]; 0.5% TCHE and 1% SLS in water", "result": 25.0, "unit": "µg/mL"},
      {"measurement": "Minimum Inhibition Concentration (MIC), Streptococcus mutans", "setting": "[6]; [8]", "result": 25.0, "unit": "µg/mL"},
      {"measurement": "Minimum Inhibition Concentration (MIC), Actinobacillus actinomycetemcomitans", "setting": "[7]; 0.5% TCHE and 1% SLS in water", "result": 5.0, "unit": "µg/mL"},
      {"measurement": "Minimum Inhibition Concentration (MIC), Actinobacillus actinomycetemcomitans", "setting": "[7]; [8]", "result": 5.0, "unit": "µg/mL"}
    ]}
  ]
}
